In PubChem BioAssay AID2060904 (Molecular Pharmacology Branch, DTP, NCI, 2025):
pIC50: −log10 of the molar value.

Test system: 349418-098-R-PDC complex spheroid viability
Assay: Anticancer human tumor 349418-098-R-PDC patient-derived lung adenocarcinoma cell line growth inhibition [RAS]
Settings: for pIC50: curve of first compound; for viability, T/C: stronger effect = lower value
Method in brief: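 Multi-cell-type spheroids: tumor cells plus HUVEC endothelial cells and mesenchymal stem cells. RAS-pathway inhibitors were combined with targeted agents, each dosed in half-log steps down from clinical Cmax, or from 10 microM when Cmax was unknown.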
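Also: spheroids exposed to compound for seven days before viability readout.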

With `CCN1CCN(Cc2ccc(Nc3ncc(F)c(-c4cc(F)c5nc(C)n(C(C)C)c5c4)n3)nc2)CC1` + CCn1c(-c2cccnc2C(C)OC)c2c3cc(ccc31)N1CCOC(CC(NC(=O)C(C(C)C)N(C)C(=O)C3(F)CCN(C(=O)C#CC(C)(C)N(C)C)CC3)C(=O)N3CCCC(N3)C(=O)OCC(C)(C)C2)C1 the pIC50 (second compound 0.000949 µM) was 7.92, the pIC50 (second compound 0.003 µM) was 7.83 and the pIC50 (second compound 0.00949 µM) was 7.87. The pIC50 (second compound 0.03 µM) was 8.06, the pIC50 (second compound 0.0949 µM) was 8.01 and the pIC50 (second compound 0.3 µM) was 8.13. It also gave a viability, T/C (second compound 0.000949 µM, first compound 0.00316 µM) of 80.1%, a viability, T/C (second compound 0.000949 µM, first compound 0.01 µM) of 54.1% and a viability, T/C (second compound 0.000949 µM, first compound 0.0316 µM) of 30.6%. For the same compound, the viability, T/C (second compound 0.000949 µM, first compound 0.1 µM) was 22.5%, the viability, T/C (second compound 0.000949 µM, first compound 0.316 µM) was 18.7% and the viability, T/C (second compound 0.000949 µM, first compound 1 µM) was 13.1%. It also gave a viability, T/C (second compound 0.003 µM, first compound 0.00316 µM) of 85.5%, a viability, T/C (second compound 0.003 µM, first compound 0.01 µM) of 61% and a viability, T/C (second compound 0.003 µM, first compound 0.0316 µM) of 28%. For the same compound, the viability, T/C (second compound 0.003 µM, first compound 0.1 µM) was 20.3%, the viability, T/C (second compound 0.003 µM, first compound 0.316 µM) was 16.8% and the viability, T/C (second compound 0.003 µM, first compound 1 µM) was 13.4%. For the same compound, the viability, T/C (second compound 0.00949 µM, first compound 0.00316 µM) was 96%, the viability, T/C (second compound 0.00949 µM, first compound 0.01 µM) was 52.2% and the viability, T/C (second compound 0.00949 µM, first compound 0.0316 µM) was 39.1%. For the same compound, the viability, T/C (second compound 0.00949 µM, first compound 0.1 µM) was 22.3%, the viability, T/C (second compound 0.00949 µM, first compound 0.316 µM) was 16.1% and the viability, T/C (second compound 0.00949 µM, first compound 1 µM) was 14.7%. For the same compound, the viability, T/C (second compound 0.03 µM, first compound 0.00316 µM) was 80.5%, the viability, T/C (second compound 0.03 µM, first compound 0.01 µM) was 44.6% and the viability, T/C (second compound 0.03 µM, first compound 0.0316 µM) was 29%. It also gave a viability, T/C (second compound 0.03 µM, first compound 0.1 µM) of 21.5%, a viability, T/C (second compound 0.03 µM, first compound 0.316 µM) of 15.9% and a viability, T/C (second compound 0.03 µM, first compound 1 µM) of 14.4%. For the same compound, the viability, T/C (second compound 0.0949 µM, first compound 0.00316 µM) was 73.4%, the viability, T/C (second compound 0.0949 µM, first compound 0.01 µM) was 48.7% and the viability, T/C (second compound 0.0949 µM, first compound 0.0316 µM) was 34.5%. It also gave a viability, T/C (second compound 0.0949 µM, first compound 0.1 µM) of 16.6%, a viability, T/C (second compound 0.0949 µM, first compound 0.316 µM) of 20.6% and a viability, T/C (second compound 0.0949 µM, first compound 1 µM) of 12.5%. The viability, T/C (second compound 0.3 µM, first compound 0.00316 µM) was 61.5%, the viability, T/C (second compound 0.3 µM, first compound 0.01 µM) was 45.5% and the viability, T/C (second compound 0.3 µM, first compound 0.0316 µM) was 33.2%. The viability, T/C (second compound 0.3 µM, first compound 0.1 µM) was 21.4%, the viability, T/C (second compound 0.3 µM, first compound 0.316 µM) was 19% and the viability, T/C (second compound 0.3 µM, first compound 1 µM) was 13.5%.
